The text below walks through data of US20180263992A1, “TREATMENT OF NEURODEGENERATIVE DISEASES” (BENEVOLENTAI BIO LIMITED, priority 2015, published 2018).

Data set [1] in a line: Entry of Gefitinib into the brain with prior P-gp inhibitor. It is filed as in vivo, C57BL/6 mice.
The next data set concerns ALS. The note with it: cited from earlier work.
The conditions of data set [2]: multi-dose animal studies; cited from earlier work.
In data set [3] the test system is SOD1G93A mouse model of ALS. The note with it: cited from earlier work.
The conditions of data set [4]: in vivo; cited from earlier work.
For another data set, the system named is human cancer cells. As to conditions: cited from earlier work.
Data set [5] concerns murine Hb9-GFP+ motor neurons co-cultured with ALS patient iAstrocytes. Description: ALS patient iAstrocyte / mouse Hb9-GFP+ motor neuron co-culture, motor neuron survival. As to conditions: iAstrocytes of three ALS patients pre-treated 24 h; survival at 72 h vs 24 h, normalised to DMSO control. It is filed as cell-based, human iAstrocytes, mouse motor neurons.
The next data set deals with P-glycoprotein (P-gp) (Homo sapiens, UniProt P08183). As to conditions: Togashi et al. 2012; cited from earlier work.
The conditions of data set [6]: in vivo; cited from earlier work. This is another data set of the same source.
For data set [7] the following is noted: phase I trials; cited from earlier work.

P-glycoprotein (P-gp), sequence (P08183 whole entry): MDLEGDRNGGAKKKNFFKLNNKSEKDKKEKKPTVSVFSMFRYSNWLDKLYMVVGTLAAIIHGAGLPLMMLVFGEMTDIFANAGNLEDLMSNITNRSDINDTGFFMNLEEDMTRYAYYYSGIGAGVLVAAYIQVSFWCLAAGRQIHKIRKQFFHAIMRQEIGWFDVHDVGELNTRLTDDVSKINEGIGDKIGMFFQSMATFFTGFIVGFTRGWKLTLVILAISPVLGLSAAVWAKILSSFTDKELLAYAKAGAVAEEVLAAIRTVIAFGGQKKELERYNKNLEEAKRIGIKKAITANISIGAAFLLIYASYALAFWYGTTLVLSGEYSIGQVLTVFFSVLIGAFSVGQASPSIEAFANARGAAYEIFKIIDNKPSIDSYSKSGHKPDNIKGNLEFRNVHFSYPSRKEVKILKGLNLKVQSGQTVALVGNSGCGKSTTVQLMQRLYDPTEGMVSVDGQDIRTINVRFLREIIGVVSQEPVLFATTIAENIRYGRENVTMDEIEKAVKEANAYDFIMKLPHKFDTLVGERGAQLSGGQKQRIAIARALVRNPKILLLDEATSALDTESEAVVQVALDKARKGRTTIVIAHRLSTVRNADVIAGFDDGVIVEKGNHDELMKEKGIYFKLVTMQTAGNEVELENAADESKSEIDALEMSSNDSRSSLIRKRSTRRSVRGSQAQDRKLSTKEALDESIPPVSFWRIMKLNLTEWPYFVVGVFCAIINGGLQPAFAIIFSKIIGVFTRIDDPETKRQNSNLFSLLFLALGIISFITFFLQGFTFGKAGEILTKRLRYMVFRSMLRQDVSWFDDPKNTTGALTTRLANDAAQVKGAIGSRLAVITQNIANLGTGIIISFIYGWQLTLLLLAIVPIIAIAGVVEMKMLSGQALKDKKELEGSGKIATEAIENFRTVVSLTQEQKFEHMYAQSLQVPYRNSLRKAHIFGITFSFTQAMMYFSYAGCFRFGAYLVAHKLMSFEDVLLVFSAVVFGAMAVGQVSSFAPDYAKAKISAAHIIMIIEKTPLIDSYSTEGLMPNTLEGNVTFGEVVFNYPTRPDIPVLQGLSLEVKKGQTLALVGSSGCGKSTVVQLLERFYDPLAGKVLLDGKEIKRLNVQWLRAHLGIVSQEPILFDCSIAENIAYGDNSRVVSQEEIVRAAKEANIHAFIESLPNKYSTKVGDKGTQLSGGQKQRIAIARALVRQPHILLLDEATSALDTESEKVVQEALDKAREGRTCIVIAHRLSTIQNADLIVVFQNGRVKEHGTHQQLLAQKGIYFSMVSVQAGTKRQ

Take `COc1cc2c(cc1OC)CN(CCc1ccc(NC(=O)c3cccc4c(=O)c5cccc(OC)c5[nH]c34)cc1)CC2` [Elacridar]: the “CNS penetration of Gefitinib” value is on record as “significantly increased” in data set [1] (Elacridar 100 mg/kg po before Gefitinib 30 mg/kg po, 2 h post dose) and “significantly increased” in data set [1] (Elacridar 100 mg/kg po before Gefitinib 100 mg/kg po, 2 h post dose).

On to `CO[C@H]1C[C@@H]2CC[C@@H](C)[C@@](O)(O2)C(=O)C(=O)N2CCCC[C@H]2C(=O)O[C@H]([C@H](C)C[C@@H]2CC[C@@H](OCCO)[C@H](OC)C2)CC(=O)[C@H](C)/C=C(\C)[C@@H](O)[C@@H](OC)C(=O)[C@H](C)C[C@H](C)/C=C/C=C/C=C/1C` [Everolimus], for which, in data set [1] (Everolimus 10 mg/kg ip), the “CNS penetration of Gefitinib” value is “did not appear to have any effect” and the “plasma exposure of Gefitinib” value is “increased”.

Take `Nc1nc2ccc(OC(F)(F)F)cc2s1` [Riluzole]: in the data set with ALS (ALS), the prolongs life is given as 2-3 months and the relief of symptoms result is reported as “does not relieve symptoms”. For the same molecule, in the data set on ALS (in vivo), the undesirable side effects result was “nausea and fatigue”.

As for `C=CC(=O)Nc1cc2c(Nc3ccc(F)c(Cl)c3)ncnc2cc1OCCCN1CCOCC1` [canertinib], in data set [2], the toxicity entry was “minimal toxicity”.

For the molecule `C#Cc1cccc(Nc2ncnc3cc(OCCOC)c(OCCOC)cc23)c1` [erlotinib], in [3], the lifespan result is on record as “failed to extend lifespan”; the “modulation of markers for astrocytes and microglia” value is “did not correlate with a modulation of markers for astrocytes and microglia”; the “penetration into the central nervous system” value was “penetrated into the central nervous system”; the “protection of motor synapses” value was “did not protect motor synapses”. Besides, in data set [3], the “symptom delay (readouts of disease onset and progression)” value is recorded as “modest yet statistically significant symptom delay”. In data set [4], the undesirable side effects entry is “skin irritation and diarrhea”. Further, in the data set on human cancer cells, the cell-cycle progression entry is “blocks cell-cycle progression in the G1 phase” and the “concentration inhibiting EGF-dependent cell proliferation” value was “nanomolar concentrations”.

Turning to `COc1cc2ncnc(Nc3ccc(F)c(Cl)c3)c2cc1OCCCN1CCOCC1` [gefitinib, N-(3-chloro-4-fluoro-phenyl)-7-methoxy-6-(3-morpholin-4-ylpropoxy)quinazolin-4-amine], in data set [5], the motor neuron survival result is reported as “dose-dependent increase in motor neuron survival”. The “P-glycoprotein (P-gp) substrate status” value at P-glycoprotein (P-gp) is given as “substrate”. The biological half-life in data set [6] is recorded as 28 hours. In data set [7], the maximal tolerated dosage is 700 mg/day.
